Format in all cases: cell-based
Holding throughout (settings): broth microdilution in MHB, peptide 128 down to 0.5 µg/mL, 20–24 h at 37 °C, no visible growth; range of three independent experiments

The subject of experiment [1] is Escherichia coli ATCC 25922. On the procedure:
(§1) Bacteria were grown overnight at 37 °C in Mueller-Hinton Broth (MHB; Sigma-Aldrich, St. Louis. MO, USA) in a shaking incubator and aliquoted into cryovials with a 50% glycerol solution in a 1:1 ratio. No additives were added to the MHB during the growth of bacterial isolates. Glycerol stocks were stored at −80 °C.
(§2) The antimicrobial activity of the putative AMPs was determined by a broth microdilution assay as described by the Clinical and Laboratory Standards Institute, with the published adaptations for testing of cationic peptides. Escherichia coli 25922 and Staphylococcus aureus 29213 isolates were purchased from the American Type Culture Collection (ATCC; Manassas, VA, USA). A human clinical isolate of Salmonella enterica serovar Enteritidis was provided by the BC Centre for Disease Control. Bacteria from stocks stored at −80 °C were streaked onto nonselective Columbia blood agar with 5% sheep blood (Oxoid) and incubated overnight at 37 °C. Next, 2–4 colonies were streaked onto a new agar plate to ensure uniform health of colonies used in the broth microdilution assay. Isolated colonies were suspended in MHB and the optical density was measured with a spectrophotometer to create an initial inoculum concentration of approximately 1 × 10^8 cfu/mL. The inoculum was diluted 1:250 to a final concentration of 2–8 × 10^5 cfu/mL, which was confirmed by performing a Total Viability Count (TVC). The TVC consisted of plating a 1:1000 dilution of the final inoculum on nonselective media and was also used to confirm the health and purity of the inoculum in each trial.
(§3) Lyophilized 80 µg peptide aliquots synthesized by GenScript (Piscataway, NJ, USA) were resuspended to 1.28 mg/mL with UltraPure water (Thermo Fisher Scientific, Waltham, MA, USA) and serially diluted in polypropylene 96-well microtiter plates (Greiner Bio-One #650261, Kremsmünster, Austria) from 128 down to 0.5 µg/mL. Two columns per plate were reserved for growth and sterility controls. Inoculum was added to the wells containing the peptide and the growth control. Plates were incubated for 20–24 h at 37 °C. The minimum inhibitory concentration (MIC) was determined as the lowest peptide concentration where there was no visible bacterial growth.

For experiment [2], the system named is Salmonella enterica serovar Enteritidis (human clinical isolate). As to the method: as §1, §2, §3
Experiment [3] deals with Staphylococcus aureus ATCC 29213. As to the method: as §1, §2, §3

Here are results for 16 compounds from PMC9774241, “Associating Biological Activity and Predicted Structure of Antimicrobial Peptides from Amphibians and Insects” (Antibiotics, 2022).

≈ marks a conversion by molar mass, not a printed value. Residues, ends and D or L forms follow the SMILES beside them. No end group written: not given here. A value given as a limit tells only on which side of the number the result lay.

Regarding “TALKSLSILKKLAKLNM [PoSn2, rAMPage-discovered AMP, Polistes snelleni]”, the “MIC, E. coli ATCC 25922” value in experiment [1] was 64 to 128 µg/mL. The “MIC, Salmonella Enteritidis” value in experiment [2] was above 128 µg/mL. Moreover, the “MIC, S. aureus ATCC 29213” value in experiment [3] was above 128 µg/mL.
For the compound `CC(C)C[C@H](NC(=O)CN)C(=O)N[C@@H](CC(C)C)C(=O)NCC(=O)N[C@@H](CCCCN)C(=O)N[C@H](C(=O)N[C@@H](CC(C)C)C(=O)NCC(=O)N[C@H](C(=O)NCC(=O)N[C@@H](CCCCN)C(=O)N[C@@H](CCCCN)C(=O)N[C@H](C(=O)N[C@@H](CC(C)C)C(=O)N[C@@H](CS)C(=O)NCC(=O)N[C@H](C(=O)N[C@@H](CO)C(=O)NCC(=O)N[C@@H](CCCNC(=N)N)C(=O)N[C@@H](CS)C(=O)O)C(C)C)C(C)C)C(C)C)C(C)C` [RaOm4] (H-GLLGKVLGVGKKVLCGVSGRC-OH; N-terminus and C-terminus assumed), the “MIC, E. coli ATCC 25922” value in experiment [1] lay within 4 to 8 µg/mL. The “MIC, Salmonella Enteritidis” value in experiment [2] amounted to 32 µg/mL (≈ 15.7 µM). In experiment [3], the “MIC, S. aureus ATCC 29213” value was in the range of 64 to 128 µg/mL.
In the same order, the values of `CC[C@H](C)[C@H](NC(=O)[C@@H](N)C(C)C)C(=O)N1CCC[C@H]1C(=O)N[C@@H](Cc1ccccc1)C(=O)N[C@H](C(=O)N[C@@H](C)C(=O)N[C@@H](CO)C(=O)N[C@H](C(=O)N[C@@H](C)C(=O)N[C@@H](C)C(=O)N[C@@H](CCC(=O)O)C(=O)N[C@@H](CCSC)C(=O)N[C@@H](CCSC)C(=O)N[C@@H](Cc1c[nH]cn1)C(=O)N[C@@H](Cc1c[nH]cn1)C(=O)N[C@H](C(=O)N[C@@H](Cc1ccc(O)cc1)C(=O)N[C@@H](CS)C(=O)N[C@@H](C)C(=O)N[C@@H](C)C(=O)N[C@@H](CO)C(=O)N[C@@H](CCCCN)C(=O)N[C@@H](CCCNC(=N)N)C(=O)N[C@@H](CS)C(=O)N[C@@H](CCCCN)C(=O)N[C@@H](CC(N)=O)C(=O)O)C(C)C)C(C)C)C(C)C` [PeNi7] (H-VIPFVASVAAEMMHHVYCAASKRCKN-OH; N-terminus and C-terminus assumed) are 128 µg/mL (≈ 44.7 µM), above 128 µg/mL and above 128 µg/mL.
In the same order, the values of AGLQFPVGRIHRHLKTR [PeNi6] are above 128 µg/mL, above 128 µg/mL and above 128 µg/mL.
In the same order, the values of `CC[C@H](C)[C@H](NC(=O)[C@H](CCCCN)NC(=O)[C@H](CC(=O)O)NC(=O)[C@H](CC(C)C)NC(=O)[C@@H](NC(=O)CNC(=O)[C@@H](NC(=O)[C@H](CO)NC(=O)[C@H](Cc1ccccc1)NC(=O)[C@H](CC(N)=O)NC(=O)[C@H](CCCCN)NC(=O)[C@@H](NC(=O)CNC(=O)[C@H](CCC(=O)O)NC(=O)[C@H](CCCCN)NC(=O)[C@@H](NC(=O)[C@@H](NC(=O)[C@@H](NC(=O)[C@H](Cc1c[nH]c2ccccc12)NC(=O)[C@H](CC(C)C)NC(=O)CN)[C@@H](C)O)[C@@H](C)O)[C@@H](C)CC)C(C)C)C(C)C)C(C)C)C(=O)N[C@@H](CCCNC(=N)N)C(=O)N[C@@H](CS)C(=O)N[C@@H](CCCCN)C(=O)N[C@H](C(=O)N[C@H](C(=O)NCC(=O)NCC(=O)N[C@@H](CS)C(=O)O)[C@@H](C)O)[C@@H](C)CC` [PeNi14] (H-GLWTTIKEGVKNFSVGVLDKIRCKITGGC-OH; N-terminus and C-terminus assumed) are 4 to 8 µg/mL, 32 µg/mL (≈ 10.2 µM) and 16 to 32 µg/mL.
As for GILRLVTRRFRFSPTNLNRYTVARLVSGVP [BoAr6], the “MIC, E. coli ATCC 25922” value in experiment [1] turned out to be 32 µg/mL. Further, the “MIC, Salmonella Enteritidis” value in experiment [2] came to 64 µg/mL. In addition, in experiment [3], the “MIC, S. aureus ATCC 29213” value is 64 to 128 µg/mL.
In the same order, the values of KLFLTLWKLKR [NaVi3] are 8 to 16 µg/mL, 64 µg/mL and 128 µg/mL.
In the same order, the values of `CC(C)C[C@H](NC(=O)CNC(=O)[C@H](CO)NC(=O)[C@@H](NC(=O)[C@@H](NC(=O)[C@H](CS)NC(=O)[C@H](CC(C)C)NC(=O)[C@@H](NC(=O)[C@H](CCCCN)NC(=O)[C@H](CCCCN)NC(=O)CNC(=O)[C@@H](NC(=O)CNC(=O)[C@H](CC(C)C)NC(=O)[C@@H](NC(=O)[C@H](CCCCN)NC(=O)CNC(=O)[C@H](CC(C)C)NC(=O)[C@H](CC(C)C)NC(=O)CN)C(C)C)C(C)C)C(C)C)C(C)C)C(C)C)C(=O)N[C@@H](CS)C(=O)O` [PeNi2] (H-GLLGKVLGVGKKVLCVVSGLC-OH; N-terminus and C-terminus assumed) are 4 µg/mL (≈ 1.96 µM), 16 to 32 µg/mL and 4 µg/mL (≈ 1.96 µM).
`CC[C@H](C)[C@H](NC(=O)[C@H](CCCCN)NC(=O)[C@H](CCCCN)NC(=O)CNC(=O)[C@@H](NC(=O)CNC(=O)[C@H](CC(C)C)NC(=O)[C@@H](NC(=O)CNC(=O)[C@H](CO)NC(=O)[C@H](CC(C)C)NC(=O)[C@H](CC(C)C)NC(=O)CN)C(C)C)C(C)C)C(=O)N[C@H](C(=O)N[C@@H](CS)C(=O)NCC(=O)N[C@@H](CC(C)C)C(=O)N[C@@H](CO)C(=O)NCC(=O)N[C@@H](CC(C)C)C(=O)N[C@@H](CS)C(=O)O)C(C)C` [OdMa6] (H-GLLSGVLGVGKKIVCGLSGLC-OH; N-terminus and C-terminus assumed): the “MIC, E. coli ATCC 25922” value in experiment [1] was 8 to 16 µg/mL. Also, the “MIC, Salmonella Enteritidis” value in experiment [2] came out at 128 µg/mL (≈ 64.9 µM). Further, in experiment [3], the “MIC, S. aureus ATCC 29213” value was 16 to 32 µg/mL.
The corresponding values for VAAFAIIGCLCCRRPRR [PoRo1] are above 128 µg/mL, above 128 µg/mL and above 128 µg/mL.
The corresponding values for RRAIFASIRGYLGLRKR [MyGu1] are 4 µg/mL, 8 to 16 µg/mL and 128 µg/mL.
For the compound GLISGILGAGKKVLC [OdMa9], the “MIC, E. coli ATCC 25922” value in experiment [1] lay in the range of 64 to 128 µg/mL. The “MIC, Salmonella Enteritidis” value in experiment [2] was 128 µg/mL. Moreover, the “MIC, S. aureus ATCC 29213” value in experiment [3] is above 128 µg/mL.
On to FPFPFGRR [RaSi2], for which, in experiment [1], the “MIC, E. coli ATCC 25922” value was above 128 µg/mL. For the same compound, the “MIC, Salmonella Enteritidis” value in experiment [2] is recorded as above 128 µg/mL. In experiment [3], the “MIC, S. aureus ATCC 29213” value is recorded as above 128 µg/mL.
Regarding VKCRVRR [ApMe1], the “MIC, E. coli ATCC 25922” value in experiment [1] was above 128 µg/mL. Also, in experiment [2], the “MIC, Salmonella Enteritidis” value was above 128 µg/mL. In addition, the “MIC, S. aureus ATCC 29213” value in experiment [3] is on record as above 128 µg/mL.
In the case of FLPSSPWNEGTYVLKKLKS [PeNi15], the “MIC, E. coli ATCC 25922” value in experiment [1] was above 128 µg/mL. Moreover, the “MIC, Salmonella Enteritidis” value in experiment [2] was above 128 µg/mL. The “MIC, S. aureus ATCC 29213” value in experiment [3] is reported as above 128 µg/mL.
Turning to ATAWKVPPGLQPIRPIRIRPLCGNDKS [PeNi16], the “MIC, E. coli ATCC 25922” value in experiment [1] is on record as above 128 µg/mL. Further, the “MIC, Salmonella Enteritidis” value in experiment [2] is given as above 128 µg/mL. Also, in experiment [3], the “MIC, S. aureus ATCC 29213” value is reported as above 128 µg/mL.
